Converted amounts (≈) assume the structure as drawn. Where two headings read alike, the source gives them in different places.
Key:
AmpC_PA = biological target: T1, AmpC_PA (Pseudomonas aeruginosa, UniProt P24735); experiment: β-lactamase inhibition, spectrophotometric assay of nitrocefin hydrolysis; format: biochemical, P. aeruginosa
T1 construct: made in house
Excerpt: (§1) Hydrolytic inactivation of the β-lactam antibiotics by β-lactamases is the most widespread drug resistant mechanism and the most challenge clinically among Gram-negative bacterial pathogens. Based on the amino acid sequences, the β-lactamases are grouped into four classes (Ambler classification), of which A, C and D are serine hydrolases and B encompasses metallo-β-lactamases. The IC50 of selected derivatives disclosed herein (identified with reference to example number) plus six reference β-lactam or β-lactamase inhibitors were determined against 7 representative β-lactamases of various classes in a standard spectrophotometric assay of nitrocefin hydrolysis. The assay is performed in 384-well plate. The seven recombinant β-lactamases AmpC_AB (from A. baumannii), AmpC_PA (from P. aeruginosa), KPC-2, NDM-1, IMP-1, VIM-1 and OXA 24/40) are expressed and purified. The reaction buffer for class A, C and D enzymes is 100 mM Na2HPO4—KH2PO4 (pH 7.1) plus 0.005% Tween-20, and for class B enzymes 10 μM ZnSO4 is added. […] The 50 μL of reaction solution composed of 2 pM of β-lactamase, 200 μM of nitrocefin and series of 3-fold dilutions of test or control compounds are added by Cybio SELMA system into 384-plate and incubated in dark at 25° C. for 2 hours. The OD490 is read in MC SpectraMax Plus384 plate reader.

KPC-2 = biological target: T2, KPC-2 (Klebsiella pneumoniae, UniProt Q9F663); experiment: as above; format: biochemical; settings: for IC50: class A β-lactamase, 200 μM nitrocefin, 25° C., 2 hours, read-out: IC50 KPC-2
T2 construct: made in house
Excerpt: as §1

VIM-1 = biological target: T3, VIM-1 (Pseudomonas aeruginosa, UniProt A0A0F7KYQ8); experiment: as above; format: biochemical; settings: class B β-lactamase, 10 μM ZnSO4; 200 μM nitrocefin, 25° C., 2 hours; read-out: IC50 VIM-1
T3 construct: made in house
Excerpt: as §1

IMP-1 = biological target: T4, IMP-1 (Serratia marcescens, UniProt P52699); experiment: as above; format: biochemical; settings: class B β-lactamase, 10 μM ZnSO4; 200 μM nitrocefin, 25° C., 2 hours; read-out: IC50 IMP-1
T4 construct: made in house
Excerpt: as §1

AmpC_AB = AmpC_AB (Acinetobacter baumannii, UniProt Q6DRA1); experiment: as above; format: biochemical
Excerpt: as §1

OXA 24/40 = biological target: T5, OXA 24/40 (Acinetobacter baumannii, UniProt Q8RLA6); experiment: as above; format: biochemical
T5 construct: made in house
Excerpt: as §1

NDM-1 = biological target: T6, NDM-1 (Klebsiella pneumoniae, UniProt C7C422); experiment: as above; format: biochemical; settings: class B β-lactamase, 10 μM ZnSO4; 200 μM nitrocefin, 25° C., 2 hours; read-out: IC50 NDM-1
T6 construct: made in house
Excerpt: as §1

A.b TNP 41704 = experiment: MIC against A. baumannii clinical isolates, alone and in combination with antibiotics; format: cell-based
A.b TNP 41708 = experiment: as above; format: cell-based
Experimental: (§2) Minimum inhibitory concentration (MIC) is determined by a broth microdilution method according to the recommendation of the Clinical and Laboratory Standards Institute (CLSI) with minor modification. […] Strains of an ESKAPE panel (E. faecium ATCC 700221, S. aureus ATCC 29213, K. pneumoniae ATCC 43816, A. baumannii ATCC 19606, P. aeruginosa ATCC 27853 and Escherichia coli ATCC 25922) were obtained originally from the American Type Culture Collection (ATCC) and used for MIC determinations of compounds. The bacteria inoculum in the test is […].

S. aureus ATCC 29213 = experiment: MIC determination, broth microdilution, ESKAPE panel; format: cell-based; settings: Staphylococcus aureus, ATCC29213; iron-depleted cation-adjusted Mueller-Hinton broth, 2,2-dipyridyl 160 μM; 37° C., 18-20 hours; read-out: MIC S. aureus ATCC 29213
Experimental: as §2

K. pneumoniae ATCC 43816 = experiment: as above; format: cell-based; settings: Klebsiella pneumoniae, ATCC43816; iron-depleted cation-adjusted Mueller-Hinton broth, 2,2-dipyridyl 160 μM; 37° C., 18-20 hours; read-out: MIC K. pneumoniae ATCC 43816
Experimental: as §2

A. baumannii ATCC 19606 = experiment: as above; format: cell-based; settings: Acinetobacter baumannii, ATCC19606; iron-depleted cation-adjusted Mueller-Hinton broth, 2,2-dipyridyl 160 μM; 37° C., 18-20 hours; read-out: MIC A. baumannii ATCC 19606
Experimental: as §2

[1] = tested on: Escherichia coli ATCC 25922; experiment: as above; format: cell-based; settings: ATCC25922, iron-depleted cation-adjusted Mueller-Hinton broth, 2,2-dipyridyl 160 μM, 37° C., 18-20 hours, read-out: MIC E. coli ATCC 25922
Experimental: as §2

P. aeruginosa ATCC 27853 = experiment: as above; format: cell-based; settings: Pseudomonas aeruginosa, ATCC27853; iron-depleted cation-adjusted Mueller-Hinton broth, 2,2-dipyridyl 160 μM; 37° C., 18-20 hours; read-out: MIC P. aeruginosa ATCC 27853
Experimental: as §2

E. faecium ATCC 700221 = experiment: as above; format: cell-based; settings: Enterococcus faecium, ATCC700221; iron-depleted cation-adjusted Mueller-Hinton broth, 2,2-dipyridyl 160 μM; 37° C., 18-20 hours; read-out: MIC E. faecium ATCC 700221
Experimental: as §2

A.b TNP 41709 = experiment: MIC against A. baumannii clinical isolates, alone and in combination with antibiotics; format: cell-based
[2] = Class C β-lactamase, 200 μM nitrocefin, 25° C., 2 hours, read-out: IC50 AmpC_AB

T2 sequence (Q9F663 25-293, looked up, species assumed): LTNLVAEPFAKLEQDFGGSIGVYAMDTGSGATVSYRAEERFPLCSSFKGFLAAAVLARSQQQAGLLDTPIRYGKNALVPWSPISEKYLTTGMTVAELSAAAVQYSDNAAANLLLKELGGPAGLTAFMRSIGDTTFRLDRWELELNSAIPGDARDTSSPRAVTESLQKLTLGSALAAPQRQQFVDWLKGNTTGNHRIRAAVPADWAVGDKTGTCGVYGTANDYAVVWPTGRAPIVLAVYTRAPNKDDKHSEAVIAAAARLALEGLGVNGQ
T1 sequence (P24735 27-397): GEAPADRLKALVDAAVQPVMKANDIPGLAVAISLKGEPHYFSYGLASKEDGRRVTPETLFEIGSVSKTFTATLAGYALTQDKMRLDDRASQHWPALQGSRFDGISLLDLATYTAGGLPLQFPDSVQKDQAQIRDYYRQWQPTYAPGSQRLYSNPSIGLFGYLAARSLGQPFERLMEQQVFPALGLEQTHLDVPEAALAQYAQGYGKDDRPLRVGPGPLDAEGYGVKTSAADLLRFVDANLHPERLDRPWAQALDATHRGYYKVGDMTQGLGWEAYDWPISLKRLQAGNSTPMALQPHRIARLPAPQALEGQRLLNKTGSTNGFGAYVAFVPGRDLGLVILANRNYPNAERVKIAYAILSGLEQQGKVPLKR
T4 sequence (P52699 19-246, looked up, species assumed): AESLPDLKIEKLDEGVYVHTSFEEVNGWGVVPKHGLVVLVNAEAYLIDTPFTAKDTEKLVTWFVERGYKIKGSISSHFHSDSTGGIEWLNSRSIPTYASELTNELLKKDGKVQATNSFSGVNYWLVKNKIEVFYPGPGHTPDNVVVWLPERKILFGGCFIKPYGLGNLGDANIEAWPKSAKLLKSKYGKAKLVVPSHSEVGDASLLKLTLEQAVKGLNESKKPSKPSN
T6 sequence (C7C422 29-270, looked up, species assumed): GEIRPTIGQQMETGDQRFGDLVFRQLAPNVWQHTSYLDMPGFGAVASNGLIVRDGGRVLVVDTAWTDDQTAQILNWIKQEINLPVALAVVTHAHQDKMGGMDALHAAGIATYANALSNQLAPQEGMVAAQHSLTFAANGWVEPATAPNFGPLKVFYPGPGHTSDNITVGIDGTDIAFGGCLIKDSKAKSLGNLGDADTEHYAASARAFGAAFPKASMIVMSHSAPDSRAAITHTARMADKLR
T5 sequence (Q8RLA6 22-275): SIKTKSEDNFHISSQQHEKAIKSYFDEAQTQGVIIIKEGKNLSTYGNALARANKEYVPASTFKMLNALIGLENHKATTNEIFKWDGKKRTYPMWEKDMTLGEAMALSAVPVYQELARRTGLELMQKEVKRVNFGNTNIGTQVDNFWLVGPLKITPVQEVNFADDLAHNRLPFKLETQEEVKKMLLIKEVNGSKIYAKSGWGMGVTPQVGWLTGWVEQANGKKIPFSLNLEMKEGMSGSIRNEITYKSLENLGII

Row | Compound | IC50 (AmpC_PA) [µM] | IC50 (KPC-2) [µM] | IC50 (VIM-1) [µM] | IC50 (IMP-1) [µM] | IC50 (OXA 24/40) [µM] | IC50 (NDM-1) [µM] | IC50 (AmpC_AB; [2]) [µM] | also measured
1 | O=C(O)[C@H]1/C(=C/CO)O[C@@H]2CC(=O)N21 [Clavulanate, reference compound] | > 200 | > 200 | > 200 | > 200 | > 200 | > 200 |  | IC50 (AmpC_AB): > 200 µM
2 | C[C@]1(/C=N/NC(=O)c2cnccn2)[C@H](C(=O)O)N2C(=O)C[C@H]2S1(=O)=O [Example 19, (2S,3R,5R)-3-methyl-7-oxo-3-((E)-(2-(pyrazine-2-carbonyl)hydrazono)methyl)-4-thia-1-azabicyclo[3.2.0]heptane-2-carboxylic acid 4,4-dioxide] | 3.68 | > 200 | > 200 | > 200 | 2.49 | > 200 | 5.76 | 
3 | C[C@]1(COC(=O)NNC(=O)c2ccc(O)c(O)c2Cl)[C@H](C(=O)O)N2C(=O)C[C@H]2S1(=O)=O [Example 70, (2S,3R,5R)-3-(((2-(2-chloro-3,4-dihydroxybenzoyl)hydrazinecarbonyl)oxy)methyl)-3-methyl-7-oxo-4-thia-1-azabicyclo[3.2.0]heptane-2-carboxylic acid 4,4-dioxide] | 9.14 | 140 | > 200 | > 200 | 29.6 | > 200 | 7.18 | MIC (A.b TNP 41704; Acinetobacter baumannii, TNP41704, Compounds alone, read-out: MIC A.b TNP 41704): 8 µg/mL; MIC A.b TNP 41704 (A.b TNP 41704; Compounds + meropenem (1:1)): 8 µg/mL; MIC A.b TNP 41704 (A.b TNP 41704; Compounds + sulbactam (1:1)): 4 µg/mL; MIC (A.b TNP 41708; Acinetobacter baumannii, TNP41708, read-out: MIC A.b TNP 41708): 16 µg/mL; MIC A.b TNP 41708 (A.b TNP 41708; Compounds + meropenem (1:1)): 8 µg/mL; MIC A.b TNP 41708 (A.b TNP 41708; Compounds + sulbactam (1:1)): 8 µg/mL; MIC (S. aureus ATCC 29213): > 128 µg/mL; MIC (K. pneumoniae ATCC 43816): > 128 µg/mL; MIC (A. baumannii ATCC 19606): 1 µg/mL (≈ 2.09 µM); MIC [1]: > 128 µg/mL; MIC (P. aeruginosa ATCC 27853): > 128 µg/mL; MIC (E. faecium ATCC 700221): > 128 µg/mL; activity against KPC-2 of class A (in words) (KPC-2; text summary of Table 4): weak activity; MIC (A.b TNP 41709; Acinetobacter baumannii, TNP41709, Compounds alone, read-out: MIC A.b TNP 41709): 8 µg/mL; MIC A.b TNP 41709 (A.b TNP 41709; Compounds + meropenem (1:1)): 4 µg/mL; MIC A.b TNP 41709 (A.b TNP 41709; Compounds + sulbactam (1:1)): 4 µg/mL
4 | C[C@]1(COC(=O)NNC(=O)c2ccc(O)c(O)c2)[C@H](C(=O)O)N2C(=O)C[C@H]2S1(=O)=O [Example 69, (2S,3R,5R)-3-(((2-(3,4-dihydroxybenzoyl)hydrazinecarbonyl)oxy)methyl)-3-methyl-7-oxo-4-thia-1-azabicyclo[3.2.0]heptane-2-carboxylic acid 4,4-dioxide] | 8.6 | > 200 | > 200 | > 200 | 65.2 | > 200 | 3.6 | 

— patent publication US11040987B2 (TenNor Therapeutics Limited, priority 2019, dated 2021)
